These results are taken from US20260193242A1, “USEFUL COMPOUNDS FOR MODULATING INFLAMMATION” (FLAGSHIP PIONEERING INNOVATIONS VI, LLC, priority 2022, published 2026).

A value given as a limit tells only on which side of the number the result lay.

In assay [1] the test system is LPS induced septic shock, C57/B6L mice. The assay is described as follows: LPS induced septic shock model in mice. It counts as in vivo. Conditions: 30 mg/kg PO in Phosal 50, 30 min before LPS 1 mg/kg, plasma 2 hours after LPS, vs vehicle. The procedure: In the LPS induced septic shock model in mice, the TLR4 agonist LPS is injected into the peritoneal cavity of mice, inducing production of pro-inflammatory cytokines that can be measured in blood two hours later (FIG. 2).
Female C57/B6L mice, 5 mice in each group, were injected with LPS (1 mg/kg) to induce septic shock 30 minutes after oral administration of compounds described herein (formulated in Phosal 50) or the controls dexamethasone (formulated in saline), a corticosteroid, and MCC950 (formulated in 0.5% methylcellulose), an inflammasome inhibitor. The mice were euthanized 2 hours after LPS stimulation, and the whole blood was drawn, processed to plasma, and snap frozen. Cytokine levels in plasma were determined by cytometric bead array assay.

The subject of assay [2] is TNBS-induced colitis, Balb/c mice. As to the kind of experiment: TNBS-induced model of colitis in mice, dosing from day -1, prophylactic mode. It is filed as in vivo. The procedure:
(§1) Female Balb/c mice aged 8 weeks and weighing 18-20 g were housed under standard conditions. The mice were divided into groups with 8-10 mice in each group by body weight. Mice in sham group received intracolonic injection with 50% ethanol (0.1 mL) at day 0, whereas mice in other Trinitrobenzene sulfonic acid (TNBS) colitis model groups received intracolonic injection of 2% TNBS solution in ethanol (0.1 mL) at day 0. The reference compound Mesalazine (Selleck) and test articles described here were dosed from day-1 to day 6. Day 6 was the endpoint, and samples were immediately harvested for the last endpoint. Mesalazine was dissolved in distilled water (pH 7.0) and test articles were dissolved in Phosal 50 PG for delivery by oral gavage.
As noted, dosing of the compounds described herein, as well as the positive control mesalamine, began one day before TNBS administration. Animals in this scenario have not yet developed colitis symptoms before administration of test articles. For this reason, we refer to these conditions as “prophylactic mode”.
(§2) Body weight and Disease Activity Index (DAI) scores were recorded daily to assess the colitis. DAI score was the sum of the weight loss score, stool score and bleeding sub-scores. A blinded scoring system was employed to assess the colitis. The DAI scorer blinded to the group information and animal ID was responsible for the stool consistency and bleeding evaluations. If there was no blood visible with naked eyes, the Fecal occult blood (FOB) test was performed with a fecal occult blood test strip (the improved pyramidon method).
(§3) Colon tissue morphology, damage and healing were assessed by histopathology. The colons were harvested, mesentery and adipose tissue were carefully removed, and internal contents were removed by rinsing with cold PBS. The colons were Swiss-rolled and fixed in neutralized paraformaldehyde followed by H&E staining. Clinical pathologists reviewed the H&E staining and scored blinded with animal ID. The pathological scoring standards were: crypt architecture (normal, 0-severe crypt distortion with loss of entire crypts, 3), degree of inflammatory cell infiltration (normal, 0-dense inflammatory infiltrate, 3), muscle thickening (base of crypt sits on the muscularis mucosae, 0-marked muscle thickening present, 3), goblet cell depletion (absent, 0-present, 1) and crypt abscess (absent, 0-present, 1).
The plasma was collected at Day-1 for PK and cytokine (IL-1ß and IL-6) analysis by mandibular venipuncture.
(§4) The data was compared by ANOVA with post-hoc Dunnett's multiple comparisons test using Graph Pad Prism 7.0 software (San Diego, CA, USA). P-value<0.05 was considered as statistically significant difference. For pairwise comparison of histology scores and cytokines, unpaired t-test was used to calculate statistical significance. Data was expressed as mean±standard error of mean. In figures, statistical significance is denoted by asterisks: *p<0.05 **p<0.01 ***p<0.005, ****p<0.0001.

Assay [3] deals with R848-driven IRF reporter (Lucia luciferase, ISG54 promoter/IFN-stimulated response elements) in THP-1 cells. As to the kind of experiment: TLR7/8 (R848) stimulated interferon response element reporter gene assay in THP1-Dual cells. It is filed as cell-based. Conditions: Homo sapiens, THP-1, 10 μM compound, 1 μM R848, THP1-Dual cells; read-out: R848-driven IRF reporter gene assay (Percent inhibition at 10 μM). The procedure:
Compounds described herein are added to the human leukemic monocyte-like cell line THP-1 for bioactivity assessment. THP1-Dual cells (InvivoGen, San Diego, CA) feature the Lucia gene, a secreted luciferase reporter gene, under the control of an ISG54 minimal promoter in conjunction with five IFN-stimulated response elements. THP1-Dual cells also express a secreted embryonic alkaline phosphatase (SEAP) reporter gene driven by an IFN-β minimal promoter fused to five copies of the NF-κB consensus transcriptional response element and three copies of the c-Rel binding site. As a result, THP1-Dual cells allow the simultaneous study of the NF-κB pathway, by monitoring the activity of SEAP, and the IRF pathway, by assessing the activity of Lucia luciferase.
THP-1 dual reporter cells were grown in RPMI 1640 culture medium with 2 mM L-glutamine, 25 mM HEPES, 10% heat-inactivated fetal bovine serum, 100 μg/ml Normocin antibiotic (InvivoGen), Pen-Strep antibiotic (100 U/ml-100 μg/ml, InvivoGen). On the day of the assay, cells were seeded in a 384 flat-bottom well plate at 25,000 cells/well and incubated for 2 hours. Cells were then incubated with 10 μM of the compounds described herein or with 1 μM of IKK-16 (Selleck), a potent inhibitor of IκB kinases (IKKs) or with DMSO (vehicle control) for 2 hours, followed by the addition of the synthetic TLR7/8 agonist R848 at 1 μM and incubation for 16 hours. After incubation was concluded, the cultures supernatants were collected and IRF related activity was assessed by measurement of the Lucia luciferase, using Quanti-Luc assay (InvivoGen). NF-κB pathway activity was assessed by quantifying SEAP using Quanti-Blue assay (InvivoGen).
(Reporter assays use an easily measured gene product as a stand-in for the process of interest.)

Assay [4] deals with TNBS-induced colitis, Balb/c mice. As to the kind of experiment: TNBS-induced model of colitis in mice, dosing from day 2, therapeutic mode. It counts as in vivo. The procedure: as §1, §2, §3, §4
Procedures were identical to those in Example 26, except that dosing of the compounds described herein, as well as the positive control mesalamine, began on the second day after TNBS administration, as diagrammed in FIG. 18. Animals in this scenario have developed colitis symptoms before administration of test articles. This is more similar to the clinical scenario with patients with inflammatory bowel disorder presenting with symptoms. For this reason, we refer to these conditions as “therapeutic mode”.

Setting [5] is: 1, 3 and 10 mg/kg PO, QD, vs Vehicle group.
The mark [6] stands for this setting: 30 mg/kg PO, QD, dosing from day 2.
Where [7] appears, read: 30 mg/kg PO, QD, dosing from day 2, vs Vehicle group.

For orientation: ED50 means the midpoint of the dose-response relation. One may read the inhibition as the drop in the measured response relative to a control, in per cent. With `CN1[C@@H](C(=O)O)CC[C@H]1[C@@H]1CSC(c2ccccc2O)=N1` [Compound I-4, (2R,5S)-5-((R)-2-(2-hydroxyphenyl)-4,5-dihydrothiazol-4-yl)-1-methylpyrrolidine-2-carboxylic acid], in assay [1], the IFNγ in plasma entry was “statistically significant decreases”, the IL-12p70 in plasma result is “statistically significant decreases” and the TNFα in plasma result was “statistically significant decreases”. Further, the “body weight (% initial weight) recovery” value in assay [2] (30 mg/kg, PO, QD, day -1 to day 6) is reported as “faster recovery rate”. Moreover, the total histology scores result in assay [2] (1, 3 and 10 mg/kg PO, QD) is recorded as “lower”. Moreover, the “Disease Activity Index (DAI) scores” value in assay [2] (1, 3 and 10 mg/kg PO, QD, day -1 to day 6) is listed as “dose-dependent improvement”. In assay [2] (setting [5]), the IL-1ß in plasma result is on record as “decreased” and the IL-6 in plasma entry is “decreased”. Moreover, the “pathological score (crypt structure failure, inflammatory cell infiltration)” value in assay [2] (1, 3 and 10 mg/kg PO, QD, H&E colon) is given as “lower”. In addition, the median effective dose (ED50) in assay [2] (Mus musculus, 144 h, PO, QD, day -1 to day 6, read-out: dose for half maximal effect or ED50 (DAI score at Day 6)) is 15 mg/kg. In assay [2] (in a dose-dependent manner, prophylactic mode), the “colon recovery and mucosal healing” value is “promoted the colon recovery and mucosal healing”. The inhibition at 10 µM in assay [3] is not below 50%. For the same compound, in assay [4] (setting [6]), the “Disease Activity Index (DAI) scores” value was “improvement”, the “body weight (% initial weight) recovery” value is listed as “faster recovery rate” and the total histology scores result is on record as “lower”. Also, in assay [4] (setting [7]), the IL-1B in plasma entry was “decreased” and the IL-6 in plasma result is listed as “decreased”. In addition, the “colon recovery and mucosal healing” value in assay [4] (therapeutic mode) is “promoted the colon recovery and mucosal healing”.
